Laboratory results taken from PubChem BioAssay AID1845209 (Molecular Pharmacology Branch, DTP, NCI, 2023).
Where “and” joins values, the source holds several entries; their conditions need not be identical. Equal values may be shown once. Calls of active or inactive are those of the source. Rule for the calls: active = viability on the fitted dose curve at most 10% of control; inactive = the rest.

System: NCI-H211 tumor spheroids, viability percent test/control
Assay: Anticancer human tumor NCI-H211 cell line growth inhibition;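 for IC50: spheroids exposed to agents for seven days before readout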;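 for viability, T/C: spheroids exposed to agents for seven days before readout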
Details: spheroids with HUVEC and MSC; for viability, T/C: stronger effect = lower value
From the text: Multicellular complex tumor spheroid response to DNA repair inhibitors in combination with DNA-damaging drugs
This study explores the anticancer activities of DNA-damaging drugs and inhibitors of DNA damage repair, both as single agents and in combinations. Complex tumor spheroids comprised of malignant cells, endothelial cells and mesenchymal stem cells served as an in vitro model for human solid tumors. This model system incorporates physiologically relevant features and patient-derived or established malignant cell lines with clinically relevant genetic alterations from many tumor types. Twenty-six patient-derived or established malignant cell lines were evaluated representing sarcoma, melanoma, small cell lung cancer (SCLC), non-small cell lung cancer (NSCLC), as well as bladder, ovarian and pancreatic cancers. The concentration ranges selected for each drug and investigational agent were based upon clinically achievable concentrations if the clinical Cmax of the agent was known.
Compounds. The drugs and compounds olaparib (NSC753686), talazoparib (NSC767125), berzosertib (NSC777718), elimusertib (NSC800525), nedisertib (NSC802822), VX-984 (NSC792969), AZD-1390 (NSC803789), temozolomide (NSC362856), topotecan (NSC609699), trabectedin (NSC813783), staurosporine (NSC755774), and gemcitabine (NSC613327) were obtained from the National Cancer Institute (NCI) Developmental Therapeutics Program Chemical Repository. The FDA-approved anticancer drug set is available from the Developmental Therapeutics Program at https://dtp.cancer.gov/organization/dscb/obtaining/available_plates.htm. […] The stock solutions were prepared in dimethyl sulfoxide (DMSO, Sigma-Aldrich, St. Louis, MO, cat. D2650) at 400-fold the tested concentration and stored at -70 degrees C. Prior to their use, the stock solutions were diluted in fresh medium and the final DMSO concentration in the assay was 0.25% (v/v). All drugs and investigational agents were tested over a range starting from a high concentration at or near the clinical Cmax and decreasing in half-log increments. If the clinical Cmax for an agent had not been determined, the highest concentration tested was 10 microM.
Cell Lines. The patient-derived cancer cell (PDC) lines: 156681-154-R-J1-PDC, 283228-195-R-J1-PDC, 287954-098-R-J1-PDC, 292921-168-R-J2-PDC, 349418-098-R-PDC, 425362-245-T-J1-PDC, 556581-035-R-J1-PDC, and BL0293-F563-PDC were received from the NCI Patient-Derived Models Repository (PDMR, https://pdmr.cancer.gov). The established cell lines HS-SY-2 (RRID:CVCL_8719), MPNST, and SYO-1 (RRID:CVCL_7146) were obtained from the Sloan Kettering Institute. The alveolar soft parts sarcoma cell line ASPS-1 (RRID:CVCL_S738) was established at the NCI and grown from internal seed stocks. The following established cell lines were purchased from the American Type Culture Collection (ATCC, Manassas, VA): G-401 (ATCC, cat. CRL-1441, RRID:CVCL_0270), SW982 (ATCC, cat. HTB-93, RRID:CVCL_1734), VA-ES-BJ (ATCC, cat. CRL-2138, RRID:CVCL_1785), NCI-H719 (ATCC, cat. CRL-5837, RRID:CVCL_1582), NCI-H196 (ATCC, cat. CRL-5823, RRID:CVCL_1509), NCI-H841 (ATCC, cat. CRL-5845, RRID:CVCL_1595), NCI-H1618 (ATCC, cat. CRL-5879, RRID:CVCL_1480), NCI-H1876 (ATCC, cat. CRL-5902, RRID:CVCL_1503), DMS 114 (ATCC, cat. CRL-2066; RRID:CVCL_1174), NCI-H211 (ATCC, cat. CRL-5824; RRID:CVCL_1529), and SW 1271 (ATCC, cat. CRL-2177, RRID:CVCL_1716). The small cell lung cancer cell line COR-L88 was purchased from Sigma-Aldrich (cat. 92031917-1VL, RRID:CVCL_1141). The non-small cell lung cancer cell lines NCI-H226 (RRID:CVCL_1544) and NCI-H322M (RRID:CVCL_1557) were established at the NCI and grown from internal seed stocks. Pooled donor human umbilical vein endothelial cells (HUVEC, Lonza, cat. CC-2519) and human mesenchymal stem cells (hMSC, Lonza, cat. PT-2501) were purchased from Lonza (Walkersville, MD).
Cell Culture. All cells were maintained in an incubator at 37 degrees C and 5% CO2 with 95% humidity. […]

[1] = compound alone, run of 12/16/2019

CC(C)n1c(=O)n(C)c2cnc3cc(F)c(-c4ccc(OCCCN5CCCCC5)nc4)cc3c21
viability, T/C (compound 0.0316 µM): 91.8% and 79.6% and 91.9% | viability, T/C (compound 0.1 µM): 62.7% and 60.5% and 86.8% | viability, T/C (compound 0.316 µM): 77.7% and 54.9% and 93.9% | viability, T/C (compound 1 µM): 76.7% and 57.7% and 85.2% | viability, T/C (compound 3.16 µM): 66.6% and 43.2% and 68.5% | viability, T/C (compound 10 µM): 23.9% and 14.7% and 17.5% | IC50 (curve of compound): 4950 nM and 1310 nM and 4790 nM

CC1COCCN1c1cc(-c2ccnn2C)c2ccnc(-c3ccn[nH]3)c2n1 (stereo not drawn)
viability, T/C (compound 0.1 µM): 0.66% and 1.94% and 4.83% | viability, T/C (compound 0.316 µM): 0.63% and 0.89% and 0.78% | viability, T/C (compound 1 µM): 0.57% and 0.81% and 0.58% | viability, T/C (compound 3.16 µM): 0.43% and 0.84% and 0.58% | viability, T/C (compound 10 µM): 0.61% and 1.42% and 0.85% | IC50 (curve of compound): < 31.6 nM

CC[C@@]1(O)C(=O)OCc2c1cc1n(c2=O)Cc2cc3c(CN(C)C)c(O)ccc3nc2-1
viability, T/C (compound 0.00949 µM): 12.2% [middle of 10 runs] | viability, T/C (compound 0.03 µM): 1.13% [middle of 10 runs] | viability, T/C (compound 0.0949 µM): 1.05% [middle of 10 runs] | viability, T/C (compound 0.3 µM): 1.08% [middle of 10 runs] | IC50 (compound alone, run of 11/07/2019): 4.84 nM [middle of 4 runs] | IC50 [1]: 6.27 nM [middle of 5 runs]

CNCc1ccc(-c2cc(-c3nc(-c4ccc(S(=O)(=O)C(C)C)cc4)cnc3N)on2)cc1
viability, T/C (compound 0.00949 µM): 66.6% and 86.6% and 97.1% | viability, T/C (compound 0.03 µM): 44.6% and 56.7% and 86.2% | viability, T/C (compound 0.0949 µM): 9.22% and 5.33% and 14.5% | viability, T/C (compound 0.3 µM): 1.18% and 1.04% and 0.87% | viability, T/C (compound 0.949 µM): 0.24% and 0.22% and 0.59% | viability, T/C (compound 3 µM): 0.17% and 0.19% (2×) | IC50 (curve of compound): 22.6 nM and 34.8 nM and 53.7 nM

COc1cc(C)[nH]c(=O)c1CN1CCc2c(Cl)cc(C(OC)C3COC3)c(Cl)c2C1=O (stereo not drawn)
viability, T/C (compound 0.0316 µM): 98.9% and 97.3% and 103% | viability, T/C (compound 0.1 µM): 92.9% and 105% and 99.4% | viability, T/C (compound 0.316 µM): 81.8% and 93.7% and 96.8% | viability, T/C (compound 1 µM): 92.6% and 78.5% and 88.5% | viability, T/C (compound 3.16 µM): 87.9% and 84.4% and 87.8% | viability, T/C (compound 10 µM): 83.7% and 89.1% and 85.7% | IC50 (curve of compound): > 10000 nM

COc1cc2c(cc1O)CCNC21CSC2c3c(OC(C)=O)c(C)c4c(c3C(COC1=O)N1C(O)C3Cc5cc(C)c(OC)c(O)c5C(C21)N3C)OCO4 (stereo not drawn)
viability, T/C (compound 94.9 pM): 21.3% [middle of 10 runs] | viability, T/C (compound 0.0003 µM): 0.79% [middle of 8 runs] | viability, T/C (compound 0.000949 µM): 0.7% [middle of 9 runs] | viability, T/C (compound 0.003 µM): 0.13% [middle of 6 runs] | IC50 [1]: 0.0665 nM and 0.0583 nM and 0.0631 nM

COc1ccc([C@@H](O)c2cc(-c3ncnc4cc(N5CCOCC5)ccc34)c(F)cc2Cl)nn1
viability, T/C (compound 0.0316 µM): 102% and 96.3% and 105% | viability, T/C (compound 0.1 µM): 100% and 102% and 109% | viability, T/C (compound 0.316 µM): 95.9% and 93.1% and 104% | viability, T/C (compound 1 µM): 90.3% and 101% | outcome (compound 1 µM): inactive | viability, T/C (compound 3.16 µM): 74.8% and 85% and 96% | viability, T/C (compound 10 µM): 11.4% and 40.7% and 40.8% | IC50 (curve of compound): 4870 nM and 7850 nM and 8300 nM

Cc1cc(C)c(CNC(=O)c2cc(-c3ccc(CN4CCOCC4)cc3)cc3c2cnn3C2CCCC2)c(=O)[nH]1
viability, T/C (compound 0.0316 µM): 106% and 79.2% and 96.2% | viability, T/C (compound 0.1 µM): 102% (2×) and 89.3% | viability, T/C (compound 0.316 µM): 102% and 95.7% and 100% | viability, T/C (compound 1 µM): 96.7% and 87.9% and 102% | viability, T/C (compound 3.16 µM): 91.7% and 82.2% and 104% | viability, T/C (compound 10 µM): 52% and 33.5% and 63.2% | IC50 (curve of compound): > 10000 nM and 6780 nM

Cc1sc2c(c1C)C(c1ccc(Cl)cc1)=NC(CC(=O)Nc1ccc(O)cc1)c1nnc(C)n1-2 (stereo not drawn)
viability, T/C (compound 0.00949 µM): 22.6% and 55.5% and 64.2% | viability, T/C (compound 0.03 µM): 3.79% and 7.14% and 8.47% | viability, T/C (compound 0.0949 µM): 1.01% and 1.07% and 0.73% | viability, T/C (compound 0.3 µM): 0.87% and 0.68% and 0.48% | viability, T/C (compound 0.949 µM): 0.92% and 0.62% and 0.4% | viability, T/C (compound 3 µM): 0.83% and 0.65% and 0.43% | IC50 (curve of compound): < 9.49 nM and 10.8 nM and 12.7 nM

Cn1ncnc1[C@H]1c2n[nH]c(=O)c3cc(F)cc(c23)N[C@@H]1c1ccc(F)cc1
viability, T/C (compound 0.00949 µM): 1.22% and 3.94% and 1.23% | viability, T/C (compound 0.03 µM): 1.16% and 3.82% and 0.82% | viability, T/C (compound 0.0949 µM): 1.19% and 4.14% and 0.91% | viability, T/C (compound 0.3 µM): 1.37% and 3.79% and 0.88% | viability, T/C (compound 0.949 µM): 1.35% and 4.02% and 0.84% | viability, T/C (compound 3 µM): 1.37% and 3.65% and 1.07% | IC50 (curve of compound): < 9.49 nM

Cn1nnc2c(C(N)=O)ncn2c1=O
viability, T/C (compound 1 µM): 98.3% [middle of 10 runs] | viability, T/C (compound 10 µM): 92.8% [middle of 10 runs]

O=C(c1cc(Cc2n[nH]c(=O)c3ccccc23)ccc1F)N1CCN(C(=O)C2CC2)CC1
viability, T/C (compound 0.0949 µM): 36% and 73% and 92.9% | viability, T/C (compound 0.3 µM): 30.1% and 42.2% and 63.5% | viability, T/C (compound 0.949 µM): 14.9% and 5.83% and 9.79% | viability, T/C (compound 3 µM): 9.02% and 1.22% and 0.8% | viability, T/C (compound 9.49 µM): 8.37% and 1.02% and 0.69% | viability, T/C (compound 30 µM): 7.89% and 0.93% and 0.73% | IC50 (curve of compound): < 94.9 nM and 224 nM and 401 nM

[2H]c1nc(C)nc([2H])c1-c1cc(NC[C@@H](C)c2cccc3c(C(=O)NC)ccnc23)ncn1
viability, T/C (compound 0.0316 µM): 105% and 102% and 99.5% | viability, T/C (compound 0.1 µM): 103% and 92.2% and 90.7% | viability, T/C (compound 0.316 µM): 111% and 103% and 77.5% | viability, T/C (compound 1 µM): 102% and 99.2% and 90% | viability, T/C (compound 3.16 µM): 105% and 107% and 89.8% | viability, T/C (compound 10 µM): 103% (2×) and 97.1% | IC50 (curve of compound): > 10000 nM
